# According to article PMC9179341, “Design of New Potent and Selective Thiophene-Based KV1.3 Inhibitors and Their Potential for Anticancer Activity” (Cancers, 2022):
# pEC50, pIC50: −log10 of the molar value. “Also recorded” adds a separate entry of the source.
# Assays:
# [1] = system: other KV1.x family channels or more distantly related channels; design: method as in PMID 32199306; details: cited from earlier work
# Colo-357 tumor spheroids = test: Apoptosis (caspase 3/7 activity) in Colo-357 tumor spheroids; assay type: cell-based; details: with 8.9 µM cycloheximide, up to 100 µM
# Description: (§1) Cell lines Panc-1 (ACC 783) and Colo-357 (CVCL_0221) were obtained through the validated collection of the pHioniC consortium (MSC-ITN 813834). Both cell lines were grown in RPMI1640, supplemented with 1 mM sodium pyruvate and 1% Glutamax (all Gibco Thermo-Fisher, Waltham, MA USA) 10%FBS (BioChrom, Berlin, Germany), at 5% CO2 and 37 °C in a humidified atmosphere.
# (§2) Spheroids were cultured in round bottom ultra-low attachment 96-well plates (Corning). The optimal seeding densities were empirically determined (8000 cells/well for Colo-357 or 10,000 cells/well for Panc-1 spheroids. The cells were suspended in 2% Matrigel (Corning), centrifuged at 1000× g for 10 min and the spheroids were allowed to form in the incubator. Once the spheroids were formed, the treatments indicated together with 8.9 µM cycloheximide (as apoptosis sensitizer) were added and apoptosis was determined by live imaging in the Incucyte system in real time for approximately 60 h using Caspase-3/7 green reagent (Sartorius) as a reporter of apoptosis, which crosses the cell membrane and is cleaved by the activated Caspase-3/7, resulting in the fluorescent staining of nuclear DNA. Apoptosis on Panc-1 tumor spheroids is presented as integrated green fluorescence in the whole spheroid.
# [2] = Turbidimetric solubility assay; assay type: physicochemical
# Description: For the phosphate-buffered saline, we dissolved 2.38 g of disodium hydrogen phosphate dodecahydrate, 0.19 g of potassium dihydrogen phosphate, and 8.0 g of sodium chloride in water and diluted it to 1000 mL with the same solvent. Then we adjusted the pH to 7.4. The stock DMSO solutions of the compounds were prepared at concentrations of 50 mM, 20 mM, 10 mM, and 1 mM. The final solutions (500 µM, 200 µM, 100 µM, and 10 µM) were prepared by adding 2 µL of the stock DMSO solution to 198 µL of phosphate-buffered saline. The absorbance (area scan) was measured at 620 nm for sample volume of 200 µL and the appearance of the solutions was checked by visual inspection.
# KV1.3 = KV1.3 (Homo sapiens, UniProt P22001); design: method as in PMID 32199306; details: applied ex vivo to Kv1.3 expressing oocytes; read-out: IC50 KV1.3 (previous work); cited from earlier work
# KV1.2 = KV1.2 (Homo sapiens, UniProt P16389); test: Selectivity, HiClamp Xenopus laevis heterologous expression system, KV1.2; assay type: cell-based; details: 10 µM; HiClamp, oocytes
# Description: (§3) Ion channels (Kv1.x, Kv2.1, Kv4.2, Kv10.1) were expressed in Xenopus laevis oocytes by linearization of the plasmids and subsequent in vitro transcription using a commercial T7 or SP6 mMESSAGE mMACHINE transcription kit (Ambion, Carlsbad, California, USA). Defolliculated Xenopus oocytes were then injected with 20–50 nL of the cRNA at a concentration of 1 ng/nL using a micro-injector (Drummond Scientific1, Broomall, PA, USA). The oocytes were incubated in a solution containing (in mM): NaCl, 96; KCl, 2; CaCl2, 1.8; MgCl2, 2 and HEPES, 5 (pH 7.5), supplemented with 50 mg/L gentamycin sulfate and 90 mg/L theophylline. After ex vivo translation, the ion channels were correctly inserted in the cell membrane of the oocytes.
# (§4) Two-electrode voltage-clamp recordings were performed at room temperature (18–22 °C) using a Geneclamp 500 amplifier (Molecular Devices, San Jose, CA, USA) and pClamp data acquisition (Axon Instruments, Union City, CA, USA) and using an integrated digital TEVC amplifier controlled by HiClamp, an automated Voltage-Clamp Screening System (Multi Channel Systems MCS GmbH, Reutlingen, Germany). Whole-cell currents from oocytes were recorded 1–4 days after injection. The bath solution composition was ND96 (in mM): NaCl, 96; KCl, 2; CaCl2, 1.8; MgCl2, 2 and HEPES, 5 (pH 7.5). Voltage and current electrodes were filled with a 3 M solution of KCl in H2O. Resistances of both electrodes were kept between 0.5 and 1.5 MΩ. The elicited Kv1.x, Kv2.1, Kv4.2 and Kv10.1 currents were filtered at 0.5 kHz and sampled at 2 kHz using a four-pole low-pass Bessel filter. Leak subtraction was performed using a P/4 protocol.
# (§5) For the electrophysiological analysis of the compounds, a number of protocols were applied from a holding potential of −90 mV. Currents for Kv1.x, Kv2.1, Kv4.2 and Kv10.1 were evoked by 1 s depolarizing pulses either to 0 mV or to a range of voltage steps between −80 mV and +40 mV. For the analysis of the data, only the inhibition at the 0 mV step was used. The concentration dependency of all compounds was assessed by measuring the current inhibition in the presence of increasing compound concentrations. […] From this stock solution, adequate dilutions with a maximum of 0.5% DMSO were made for testing.
# (§6) All electrophysiological data (Figure S1) are presented as means ± S.E.M of n ≥ three independent experiments unless otherwise indicated. All data were analyzed using pClamp Clampfit 10.4 (Molecular Devices, Downingtown, PA, USA), OriginPro 9 (Originlab, Northampton, MA, USA), GraphPad Prism 8 software (GraphPad Software, Inc., San Diego, CA, USA) and DataMining (Multi Channel Systems MCS GmbH, Reutlingen, Germany). The Dunnett test and one-way ANOVA were performed to calculate the significance of the induced inhibition compared to the control.
# KV1.6 = KV1.6 (Homo sapiens, UniProt P17658); test: Selectivity, HiClamp Xenopus laevis heterologous expression system, KV1.6; assay type: cell-based; details: 10 µM; HiClamp, oocytes
# Description: as §3, §4, §5, §6
# KV10.1 = KV10.1 (Homo sapiens, UniProt O95259); test: Selectivity, HiClamp Xenopus laevis heterologous expression system, KV10.1; assay type: cell-based; details: 10 µM; HiClamp, oocytes
# Description: as §3, with “After ex vivo translation, the ion channels were correctly inserted in the cell membrane of the oocytes.” left out
# (§7) Two-electrode voltage-clamp recordings were performed at room temperature (18–22 °C) using a Geneclamp 500 amplifier (Molecular Devices, San Jose, CA, USA) and pClamp data acquisition (Axon Instruments, Union City, CA, USA) and using an integrated digital TEVC amplifier controlled by HiClamp, an automated Voltage-Clamp Screening System (Multi Channel Systems MCS GmbH, Reutlingen, Germany). Whole-cell currents from oocytes were recorded 1–4 days after injection. […]
# (§8) For the electrophysiological analysis of the compounds, a number of protocols were applied from a holding potential of −90 mV. […] The concentration dependency of all compounds was assessed by measuring the current inhibition in the presence of increasing compound concentrations. […]
# KV1.1 = KV1.1 (Rattus norvegicus, UniProt P10499); test: Selectivity, HiClamp Xenopus laevis heterologous expression system, KV1.1; assay type: cell-based; details: 10 µM; HiClamp, oocytes
# Description: as §3, §4, §5, §6
# KV1.5 = KV1.5 (Homo sapiens, UniProt P22460); test: Selectivity, HiClamp Xenopus laevis heterologous expression system, KV1.5; assay type: cell-based; details: 10 µM; HiClamp, oocytes
# Description: as §3, §4, §5, §6
# KV1.4 = KV1.4 (Homo sapiens, UniProt P22459); test: Selectivity, HiClamp Xenopus laevis heterologous expression system, KV1.4; assay type: cell-based; details: 10 µM; HiClamp, oocytes
# Description: as §3
# as §4, with “Resistances of both electrodes were kept between 0.5 and 1.5 MΩ. The elicited Kv1.x, Kv2.1, Kv4.2 and Kv10.1 currents were filtered at 0.5 kHz and sampled at 2 kHz using a four-pole low-pass Bessel filter. Leak subtraction was performed using a P/4 protocol.” left out
# as §8
# as §6, with “The Dunnett test and one-way ANOVA were performed to calculate the significance of the induced inhibition compared to the control.” left out
# KV2.1 = target: T1, KV2.1 (Homo sapiens, UniProt Q14721); test: Selectivity, HiClamp Xenopus laevis heterologous expression system, KV2.1; assay type: cell-based; details: 10 µM; HiClamp, oocytes
# T1 sequence (Q14721 1-858): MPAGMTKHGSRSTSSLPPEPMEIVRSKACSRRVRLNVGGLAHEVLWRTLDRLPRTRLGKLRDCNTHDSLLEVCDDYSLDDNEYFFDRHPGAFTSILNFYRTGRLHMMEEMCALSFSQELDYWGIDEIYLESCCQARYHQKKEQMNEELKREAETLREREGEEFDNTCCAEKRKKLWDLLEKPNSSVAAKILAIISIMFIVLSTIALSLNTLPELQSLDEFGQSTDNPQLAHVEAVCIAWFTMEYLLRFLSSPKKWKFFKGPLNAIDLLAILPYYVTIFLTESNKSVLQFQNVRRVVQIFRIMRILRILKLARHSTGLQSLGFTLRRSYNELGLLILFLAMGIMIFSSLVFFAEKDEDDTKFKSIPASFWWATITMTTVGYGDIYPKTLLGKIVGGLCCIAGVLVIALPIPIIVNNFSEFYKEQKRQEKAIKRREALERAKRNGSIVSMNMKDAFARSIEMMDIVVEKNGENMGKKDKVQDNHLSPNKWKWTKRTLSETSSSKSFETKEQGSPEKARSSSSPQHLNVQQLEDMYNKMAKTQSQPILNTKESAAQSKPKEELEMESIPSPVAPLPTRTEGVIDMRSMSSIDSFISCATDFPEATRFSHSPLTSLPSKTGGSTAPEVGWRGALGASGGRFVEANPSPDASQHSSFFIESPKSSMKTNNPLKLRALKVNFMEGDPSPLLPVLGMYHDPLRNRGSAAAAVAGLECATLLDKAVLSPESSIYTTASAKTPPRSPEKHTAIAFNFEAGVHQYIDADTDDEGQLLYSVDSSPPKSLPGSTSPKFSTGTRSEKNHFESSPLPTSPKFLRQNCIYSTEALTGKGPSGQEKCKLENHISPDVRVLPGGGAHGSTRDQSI
# Description: as §3
# as §4, with “Resistances of both electrodes were kept between 0.5 and 1.5 MΩ. The elicited Kv1.x, Kv2.1, Kv4.2 and Kv10.1 currents were filtered at 0.5 kHz and sampled at 2 kHz using a four-pole low-pass Bessel filter. Leak subtraction was performed using a P/4 protocol.” left out
# as §8
# as §6, with “The Dunnett test and one-way ANOVA were performed to calculate the significance of the induced inhibition compared to the control.” left out
# KV4.2 = KV4.2 (Homo sapiens, UniProt Q9NZV8); test: Selectivity, HiClamp Xenopus laevis heterologous expression system, KV4.2; assay type: cell-based; details: 10 µM, oocytes
# Description: as §3, with “After ex vivo translation, the ion channels were correctly inserted in the cell membrane of the oocytes.” left out
# as §7, §8
# [3] = system: cancer cells (human SAOS2, mouse B16F10 melanoma, and human B-CLL); details: PAP-1 20 µM, clofazimine 1 or 10 µM, with MDRi cyclosporine H (4 µM) and probenecid (100 µM); cited from earlier work
# Panc-1 tumor spheroids = test: Apoptosis (caspase 3/7 activity) in Panc-1 tumor spheroids; assay type: cell-based; details: with 8.9 µM cycloheximide
# Description: as §1, §2
# [4] = system: pancreatic ductal adenocarcinoma (PDAC) cell lines; details: cited from earlier work
# [5] = system: orthotopic PDAC xenotransplantation model; details: orthotopic PDAC xenotransplantation model in SCID beige mice; cited from earlier work
# Panc-1 cell line = system: Panc-1 cell line; design: method as in PMID 29034212; details: Panc-1; 20 µM; cited from earlier work
# [6] = system: KV1.1, KV1.2, KV1.5 and KV3.1; design: method as in PMID 19104661; details: cited from earlier work
# Colo-357 = system: Colo-357; design: method as in PMID 29034212; details: read-out: EC50 cell death; cited from earlier work
# Chain of KV1.6 (P17658 whole entry): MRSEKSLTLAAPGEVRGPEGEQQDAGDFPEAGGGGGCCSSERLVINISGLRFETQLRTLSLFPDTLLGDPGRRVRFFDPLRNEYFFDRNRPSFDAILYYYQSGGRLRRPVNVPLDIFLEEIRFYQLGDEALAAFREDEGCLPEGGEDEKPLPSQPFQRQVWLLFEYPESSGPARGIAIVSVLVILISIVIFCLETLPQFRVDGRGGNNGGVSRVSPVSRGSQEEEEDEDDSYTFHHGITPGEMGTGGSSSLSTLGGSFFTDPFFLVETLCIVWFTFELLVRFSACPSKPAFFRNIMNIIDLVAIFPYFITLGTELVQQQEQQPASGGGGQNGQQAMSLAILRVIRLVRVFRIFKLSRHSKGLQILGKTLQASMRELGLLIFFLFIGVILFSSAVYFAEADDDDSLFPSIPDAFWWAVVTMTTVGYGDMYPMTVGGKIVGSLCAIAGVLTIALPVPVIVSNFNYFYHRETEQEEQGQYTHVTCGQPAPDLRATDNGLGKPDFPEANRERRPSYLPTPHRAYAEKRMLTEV
# Chain of KV1.4 (P22459 whole entry): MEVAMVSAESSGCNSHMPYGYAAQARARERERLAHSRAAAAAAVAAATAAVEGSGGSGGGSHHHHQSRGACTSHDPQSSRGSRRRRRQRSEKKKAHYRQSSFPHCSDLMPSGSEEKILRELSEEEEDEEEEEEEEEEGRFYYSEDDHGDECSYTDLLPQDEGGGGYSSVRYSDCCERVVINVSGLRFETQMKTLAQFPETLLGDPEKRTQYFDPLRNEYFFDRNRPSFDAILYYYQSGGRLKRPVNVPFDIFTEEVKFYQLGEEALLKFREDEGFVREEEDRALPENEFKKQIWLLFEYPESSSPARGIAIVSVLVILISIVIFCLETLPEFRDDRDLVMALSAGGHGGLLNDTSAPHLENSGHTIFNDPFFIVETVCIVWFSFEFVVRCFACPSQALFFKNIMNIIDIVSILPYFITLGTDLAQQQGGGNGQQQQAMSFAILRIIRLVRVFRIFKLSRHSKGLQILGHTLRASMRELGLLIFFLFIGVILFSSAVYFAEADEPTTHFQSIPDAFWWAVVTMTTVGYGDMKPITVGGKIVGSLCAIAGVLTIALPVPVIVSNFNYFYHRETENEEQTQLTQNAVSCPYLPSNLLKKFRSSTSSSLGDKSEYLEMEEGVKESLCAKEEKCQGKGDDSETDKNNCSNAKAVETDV
# Chain of KV1.2 (P16389 whole entry): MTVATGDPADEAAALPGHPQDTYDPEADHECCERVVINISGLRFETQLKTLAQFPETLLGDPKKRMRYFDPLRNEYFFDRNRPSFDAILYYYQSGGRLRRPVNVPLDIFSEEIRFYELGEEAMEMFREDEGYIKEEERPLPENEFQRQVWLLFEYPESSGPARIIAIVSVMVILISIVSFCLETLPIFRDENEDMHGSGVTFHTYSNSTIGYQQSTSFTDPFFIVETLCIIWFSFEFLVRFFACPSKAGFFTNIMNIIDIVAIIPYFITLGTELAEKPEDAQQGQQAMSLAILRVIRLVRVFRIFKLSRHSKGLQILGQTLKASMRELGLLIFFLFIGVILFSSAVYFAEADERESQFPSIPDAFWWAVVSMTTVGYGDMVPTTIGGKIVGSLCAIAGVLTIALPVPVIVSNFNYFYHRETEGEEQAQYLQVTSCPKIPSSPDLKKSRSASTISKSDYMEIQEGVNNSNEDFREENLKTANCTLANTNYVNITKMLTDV
# Chain of KV4.2 (Q9NZV8 whole entry): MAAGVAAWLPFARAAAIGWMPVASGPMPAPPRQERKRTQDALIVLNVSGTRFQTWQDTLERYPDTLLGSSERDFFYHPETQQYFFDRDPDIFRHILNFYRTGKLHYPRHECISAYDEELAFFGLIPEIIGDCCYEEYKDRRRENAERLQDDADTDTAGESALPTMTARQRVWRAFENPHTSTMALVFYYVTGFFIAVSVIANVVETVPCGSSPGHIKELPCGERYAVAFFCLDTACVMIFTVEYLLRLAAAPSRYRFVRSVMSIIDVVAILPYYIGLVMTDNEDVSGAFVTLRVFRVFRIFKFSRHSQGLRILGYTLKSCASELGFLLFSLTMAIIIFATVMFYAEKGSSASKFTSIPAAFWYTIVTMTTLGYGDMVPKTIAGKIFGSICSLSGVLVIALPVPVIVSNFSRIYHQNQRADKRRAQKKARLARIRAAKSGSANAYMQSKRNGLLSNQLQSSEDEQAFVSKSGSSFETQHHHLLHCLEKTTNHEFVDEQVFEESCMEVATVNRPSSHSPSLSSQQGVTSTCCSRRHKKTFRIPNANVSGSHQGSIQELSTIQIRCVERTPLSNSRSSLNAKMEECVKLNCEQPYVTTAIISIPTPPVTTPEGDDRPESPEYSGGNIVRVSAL
# Chain of KV1.5 (P22460 whole entry): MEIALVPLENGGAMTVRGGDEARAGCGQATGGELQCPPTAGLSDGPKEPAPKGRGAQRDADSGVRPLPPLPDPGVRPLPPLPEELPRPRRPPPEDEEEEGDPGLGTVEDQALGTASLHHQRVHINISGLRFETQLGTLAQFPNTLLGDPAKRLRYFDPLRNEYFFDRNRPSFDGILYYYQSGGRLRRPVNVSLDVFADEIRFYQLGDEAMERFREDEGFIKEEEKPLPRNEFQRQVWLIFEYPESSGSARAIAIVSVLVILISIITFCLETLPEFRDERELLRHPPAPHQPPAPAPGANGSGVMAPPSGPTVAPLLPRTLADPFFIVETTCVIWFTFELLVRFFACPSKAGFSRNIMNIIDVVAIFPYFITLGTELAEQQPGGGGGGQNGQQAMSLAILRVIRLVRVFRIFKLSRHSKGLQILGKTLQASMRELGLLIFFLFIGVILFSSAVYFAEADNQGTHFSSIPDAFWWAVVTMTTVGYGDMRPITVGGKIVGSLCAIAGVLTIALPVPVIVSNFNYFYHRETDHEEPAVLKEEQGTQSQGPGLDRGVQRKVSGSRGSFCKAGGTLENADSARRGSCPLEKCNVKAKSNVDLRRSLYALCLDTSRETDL
# Chain of KV1.3 (P22001 whole entry): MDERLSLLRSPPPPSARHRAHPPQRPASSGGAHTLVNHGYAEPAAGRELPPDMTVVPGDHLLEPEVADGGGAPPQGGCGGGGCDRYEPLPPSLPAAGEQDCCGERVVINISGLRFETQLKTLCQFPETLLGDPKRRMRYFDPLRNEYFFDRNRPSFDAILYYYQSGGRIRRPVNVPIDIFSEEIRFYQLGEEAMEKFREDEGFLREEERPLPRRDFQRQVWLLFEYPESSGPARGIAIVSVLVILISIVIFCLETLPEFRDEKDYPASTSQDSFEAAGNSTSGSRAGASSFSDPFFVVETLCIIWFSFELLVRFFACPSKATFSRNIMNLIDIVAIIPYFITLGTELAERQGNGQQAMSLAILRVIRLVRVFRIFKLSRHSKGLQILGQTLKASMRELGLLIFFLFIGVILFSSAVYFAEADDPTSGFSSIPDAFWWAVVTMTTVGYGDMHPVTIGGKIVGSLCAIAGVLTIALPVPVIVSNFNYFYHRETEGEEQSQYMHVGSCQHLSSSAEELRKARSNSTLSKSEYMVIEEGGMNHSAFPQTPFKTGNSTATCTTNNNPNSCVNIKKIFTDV
# Chain of KV1.1 (P10499 whole entry): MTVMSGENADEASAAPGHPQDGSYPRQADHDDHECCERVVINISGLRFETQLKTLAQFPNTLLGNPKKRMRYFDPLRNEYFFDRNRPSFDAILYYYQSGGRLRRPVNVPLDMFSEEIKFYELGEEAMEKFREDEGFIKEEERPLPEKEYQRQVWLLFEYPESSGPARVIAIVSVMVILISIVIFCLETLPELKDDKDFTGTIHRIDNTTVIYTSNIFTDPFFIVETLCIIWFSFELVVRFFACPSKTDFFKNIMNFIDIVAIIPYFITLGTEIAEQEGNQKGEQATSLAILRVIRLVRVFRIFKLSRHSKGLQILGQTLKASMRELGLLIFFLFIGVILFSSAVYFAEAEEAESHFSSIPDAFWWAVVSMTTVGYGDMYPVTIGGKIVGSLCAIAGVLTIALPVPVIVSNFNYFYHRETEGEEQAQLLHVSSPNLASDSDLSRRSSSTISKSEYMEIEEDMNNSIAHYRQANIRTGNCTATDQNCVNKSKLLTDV
# Chain of KV10.1 (O95259 whole entry): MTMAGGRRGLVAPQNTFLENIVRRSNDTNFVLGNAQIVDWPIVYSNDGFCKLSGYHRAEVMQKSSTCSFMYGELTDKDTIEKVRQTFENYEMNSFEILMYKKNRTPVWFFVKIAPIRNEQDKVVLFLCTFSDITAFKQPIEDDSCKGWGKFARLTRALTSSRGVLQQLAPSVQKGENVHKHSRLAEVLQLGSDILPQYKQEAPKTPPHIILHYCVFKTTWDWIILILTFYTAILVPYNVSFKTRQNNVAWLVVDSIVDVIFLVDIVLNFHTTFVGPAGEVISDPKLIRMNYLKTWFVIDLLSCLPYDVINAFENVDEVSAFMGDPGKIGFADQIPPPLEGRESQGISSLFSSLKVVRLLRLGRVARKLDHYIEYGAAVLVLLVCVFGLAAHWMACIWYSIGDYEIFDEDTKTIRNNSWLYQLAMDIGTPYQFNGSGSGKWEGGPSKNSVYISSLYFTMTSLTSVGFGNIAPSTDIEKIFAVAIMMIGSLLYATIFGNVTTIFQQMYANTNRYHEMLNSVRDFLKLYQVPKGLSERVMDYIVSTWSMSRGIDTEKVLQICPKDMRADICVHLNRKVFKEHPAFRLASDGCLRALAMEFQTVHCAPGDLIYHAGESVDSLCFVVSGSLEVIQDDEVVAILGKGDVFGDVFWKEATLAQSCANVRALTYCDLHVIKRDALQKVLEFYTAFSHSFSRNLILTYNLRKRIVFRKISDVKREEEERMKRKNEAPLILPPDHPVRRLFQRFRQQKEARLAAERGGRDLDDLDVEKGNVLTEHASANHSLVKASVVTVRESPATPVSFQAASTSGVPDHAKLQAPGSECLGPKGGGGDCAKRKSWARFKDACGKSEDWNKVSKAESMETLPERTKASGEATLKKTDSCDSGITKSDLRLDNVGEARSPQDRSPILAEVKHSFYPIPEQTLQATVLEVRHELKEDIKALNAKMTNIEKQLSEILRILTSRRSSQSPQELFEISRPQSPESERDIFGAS
compound,measurement,setting,value
COc1ccccc1C(=O)NCC1(c2ccsc2)CCCC1 [Compound 4],Effect on other KV1.x family channels or more distantly related channels,[1],did not affect
same,Induction of apoptosis in Colo-357 spheroids,Colo-357 tumor spheroids,significant induction of apoptosis; also recorded: induced a significant amount of apoptosis
same,absorbance at 620 nm,[2]; 10 µM in PBS with 1 % final DMSO,0
same,absorbance at 620 nm,[2]; 100 µM in PBS with 1 % final DMSO,"0,035"
same,absorbance at 620 nm,[2]; 200 µM in PBS with 1 % final DMSO,"0,127"
same,absorbance at 620 nm,[2]; 500 µM in PBS with 1 % final DMSO,"0,189"
COc1ccccc1C(=O)NCC1(c2ccccc2)CCOCC1 [Compound 5],pIC50,KV1.3,6.04
"O=c1ccc2c(OCCCCOc3ccccc3)c3ccoc3cc2o1 [PAP-1 (1), PAP-1, reference compound]",Effect on KV1.2 channel,KV1.2,no significant effects
same,Effect on KV1.6 channel,KV1.6,no significant effects
same,Effect on KV10.1 channel,KV10.1,no significant effects
same,Effect on KV1.1 channel,KV1.1,no significant effects
same,Effect on KV1.5 channel,KV1.5,no significant effects
same,Effect on KV1.4 channel,KV1.4,no significant effects
same,Effect on KV2.1 channel,KV2.1,no significant effects
same,Effect on KV4.2 channel,KV4.2,no significant effects
same,Induction of apoptosis in cancer cells,[3],induced mild apoptosis
same,Induction of apoptosis in Panc-1 spheroids,Panc-1 tumor spheroids,did and induce significant apoptosis
"CC(C)/N=c1\cc2n(-c3ccc(Cl)cc3)c3ccccc3nc-2cc1Nc1ccc(Cl)cc1 [clofazimine (3), clofazimine]",EC50 apoptosis in PDAC cell lines,[4],micromolar range
same,Induction of apoptosis in PDAC cell lines,[4],induced significant apoptosis
same,Primary tumor weight,[5],significantly reduced
same,cell death,Panc-1 cell line,less than 30%
same,"Potency on KV1.3 relative to KV1.1, KV1.2, KV1.5 and KV3.1",[6],tenfold higher potency
same,Induction of apoptosis in cancer cells,[3],induced mild apoptosis
same,pEC50,Colo-357,5.82
